Results published in PubChem BioAssay (NCI).
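Cultured in 96-well plates, cells were exposed to test compound for 48 hours across five concentrations. TGI: concentration producing complete growth inhibition.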

Key:
Assay in all cases: NCI tumour cell line growth inhibition, 48 h
A549 NSCLC = tested on: A549 NSCLC
HCT-116 colon = tested on: HCT-116 colon
U251 CNS = tested on: U251 CNS
HCC-2998 colon = tested on: HCC-2998 colon
UACC-257 melanoma = tested on: UACC-257 melanoma
T-47D breast = tested on: T-47D breast
RXF 393 renal = tested on: RXF 393 renal
SF-268 CNS = tested on: SF-268 CNS
SF-539 CNS = tested on: SF-539 CNS
SK-MEL-5 melanoma = tested on: SK-MEL-5 melanoma
M14 melanoma = tested on: M14 melanoma
TK-10 renal = tested on: TK-10 renal
OVCAR-8 ovarian = tested on: OVCAR-8 ovarian
HT29 colon = tested on: HT29 colon
786-0 renal = tested on: 786-0 renal
NCI/ADR-RES ovarian = tested on: NCI/ADR-RES ovarian
IGROV1 ovarian = tested on: IGROV1 ovarian
EKVX NSCLC = tested on: EKVX NSCLC
SNB-75 CNS = tested on: SNB-75 CNS
HOP-92 NSCLC = tested on: HOP-92 NSCLC

SMILES | TGI (A549 NSCLC) | TGI (HCT-116 colon) | TGI (U251 CNS) | TGI (HCC-2998 colon) | TGI (UACC-257 melanoma) | TGI (T-47D breast) | TGI (RXF 393 renal) | TGI (SF-268 CNS) | TGI (SF-539 CNS) | TGI (SK-MEL-5 melanoma) | TGI (M14 melanoma) | TGI (TK-10 renal) | TGI (OVCAR-8 ovarian) | TGI (HT29 colon) | TGI (786-0 renal) | TGI (NCI/ADR-RES ovarian) | TGI (IGROV1 ovarian) | TGI (EKVX NSCLC) | TGI (SNB-75 CNS) | TGI (HOP-92 NSCLC)
Cc1nc2ccc(Cl)cc2c2c1CCS2 | > 100 µM | > 100 µM | > 100 µM | > 100 µM | > 100 µM | > 100 µM | > 100 µM | > 100 µM | > 100 µM | 77.7 µM | > 100 µM | > 100 µM | > 100 µM | > 100 µM | > 100 µM | > 100 µM | > 100 µM | – | – | –
C=CCOC(=O)Cn1cc(C)c(=O)[nH]c1=O | > 100 µM | > 100 µM | > 100 µM | > 100 µM | > 100 µM | > 100 µM | – | > 100 µM | > 100 µM | > 100 µM | > 100 µM | > 100 µM | > 100 µM | > 100 µM | > 100 µM | > 100 µM | > 100 µM | > 100 µM | > 100 µM | –
Cn1ccc(C(=O)N2CCSC2=S)c(OCc2ccccc2)c1=O | > 100 µM | > 100 µM | > 100 µM | > 100 µM | > 100 µM | > 100 µM | – | > 100 µM | – | > 100 µM | – | > 100 µM | > 100 µM | > 100 µM | > 100 µM | > 100 µM | – | – | > 100 µM | > 100 µM
CCOC(=O)[C@]12C(=C(c3ccccc3)O[C@H]3C=CCC[C@H]31)C(=O)C(=O)N2c1ccccc1 | > 100 µM | > 100 µM | 38.6 µM | > 100 µM | – | > 100 µM | > 100 µM | > 100 µM | > 100 µM | > 100 µM | > 100 µM | > 100 µM | > 100 µM | > 100 µM | > 100 µM | > 100 µM | – | – | – | –
CN(C)Cc1cc(N=Nc2cccc(Cl)c2)ccc1O | 32.2 µM | 52 µM | 33.1 µM | 27.9 µM | 29.3 µM | 34 µM | 20.8 µM | 40.3 µM | 33 µM | 14.2 µM | 25.5 µM | 23.2 µM | 28.5 µM | 33.7 µM | 27.4 µM | 22.4 µM | 27.1 µM | – | 39.1 µM | 41 µM
N#Cc1n[nH]n(C2CCCCC2)c1=O | > 100 µM | > 100 µM | > 100 µM | > 100 µM | > 100 µM | > 100 µM | > 100 µM | > 100 µM | > 100 µM | > 100 µM | > 100 µM | > 100 µM | > 100 µM | > 100 µM | > 100 µM | > 100 µM | > 100 µM | > 100 µM | > 100 µM | –
Cn1c(N)c(C(N)=O)[nH]c1=S | > 100 µM | – | > 100 µM | > 100 µM | – | > 100 µM | > 100 µM | > 100 µM | > 100 µM | > 100 µM | > 100 µM | > 100 µM | > 100 µM | > 100 µM | > 100 µM | > 100 µM | > 100 µM | > 100 µM | > 100 µM | –
n1onc2c1NC1Nc3nonc3NC1N2 (configuration not stated) | > 100 µM | > 100 µM | > 100 µM | > 100 µM | – | > 100 µM | – | > 100 µM | > 100 µM | > 100 µM | > 100 µM | > 100 µM | > 100 µM | > 100 µM | > 100 µM | > 100 µM | > 100 µM | > 100 µM | > 100 µM | > 100 µM
CC1=NNC(=O)C1C1CC(c2c[nH]c3ccccc23)=NNC1=S (configuration not stated) | > 100 µM | > 100 µM | > 100 µM | – | > 100 µM | > 100 µM | > 100 µM | > 100 µM | > 100 µM | > 100 µM | > 100 µM | > 100 µM | > 100 µM | > 100 µM | > 100 µM | > 100 µM | – | > 100 µM | > 100 µM | > 100 µM
O=C1CCCC2C(O)CCC[C@H]12 (some centres not stated) | > 100 µM | > 100 µM | > 100 µM | > 100 µM | > 100 µM | > 100 µM | > 100 µM | > 100 µM | > 100 µM | > 100 µM | > 100 µM | > 100 µM | > 100 µM | > 100 µM | > 100 µM | > 100 µM | > 100 µM | > 100 µM | > 100 µM | –
CC(C)(C)n1c(=O)[nH]n(C2NN=Cc3cccc4cccc2c34)c1=O (configuration not stated) | 63.4 µM | > 100 µM | > 100 µM | > 100 µM | > 100 µM | > 100 µM | 72.2 µM | > 100 µM | 45.1 µM | – | > 100 µM | > 100 µM | > 100 µM | 45.9 µM | > 100 µM | > 100 µM | – | 68.8 µM | 85.6 µM | –
COC(=O)C1CCOC(C)N1C(=O)OC(C)(C)C (configuration not stated) | > 100 µM | > 100 µM | > 100 µM | > 100 µM | > 100 µM | > 100 µM | > 100 µM | > 100 µM | > 100 µM | > 100 µM | > 100 µM | > 100 µM | > 100 µM | > 100 µM | > 100 µM | > 100 µM | > 100 µM | > 100 µM | > 100 µM | –
CCOC(O)(NC(=O)C(C(F)(F)F)C(F)(F)F)C(F)(F)F (configuration not stated) | > 100 µM | > 100 µM | > 100 µM | > 100 µM | > 100 µM | > 100 µM | > 100 µM | > 100 µM | > 100 µM | > 100 µM | > 100 µM | > 100 µM | > 100 µM | > 100 µM | > 100 µM | > 100 µM | > 100 µM | > 100 µM | > 100 µM | –
CC1=NOC2(C1)C(=O)Nc1ccccc12 (configuration not stated) | > 100 µM | > 100 µM | > 100 µM | > 100 µM | > 100 µM | > 100 µM | > 100 µM | > 100 µM | > 100 µM | > 100 µM | > 100 µM | > 100 µM | > 100 µM | > 100 µM | > 100 µM | > 100 µM | > 100 µM | > 100 µM | > 100 µM | –
COc1cc2c(c(O)c1OC)C(O)C1CCC(=O)N1C2c1cccc2ccccc12 (configuration not stated) | > 100 µM | > 100 µM | > 100 µM | – | > 100 µM | > 100 µM | > 100 µM | > 100 µM | > 100 µM | > 100 µM | > 100 µM | – | > 100 µM | > 100 µM | > 100 µM | > 100 µM | > 100 µM | > 100 µM | > 100 µM | > 100 µM
C1=Nc2ccc(cc2)N=Cc2ccc(cc2)OCc2cccc(n2)COc2ccc1cc2 | > 100 µM | > 100 µM | > 100 µM | – | > 100 µM | > 100 µM | > 100 µM | > 100 µM | > 100 µM | > 100 µM | > 100 µM | – | > 100 µM | > 100 µM | > 100 µM | > 100 µM | > 100 µM | > 100 µM | > 100 µM | > 100 µM
Cc1ccc(S(=O)(=O)n2c3c(c4ccccc42)CCN2C(=O)C(S(=O)(=O)c4ccccc4)=CCC32)cc1 (configuration not stated) | 2.77 µM | – | 0.404 µM | 0.44 µM | 0.319 µM | 0.375 µM | 0.273 µM | – | 0.391 µM | 0.337 µM | – | 0.282 µM | 0.328 µM | 0.48 µM | 0.346 µM | – | 0.36 µM | – | 1.41 µM | 0.315 µM
Cc1ccc(Cc2n[nH]c(=O)n2-c2ccccc2)cc1 | > 100 µM | > 100 µM | > 100 µM | > 100 µM | > 100 µM | 61.8 µM | > 100 µM | > 100 µM | > 100 µM | > 100 µM | – | > 100 µM | > 100 µM | > 100 µM | > 100 µM | > 100 µM | > 100 µM | – | > 100 µM | –
CCOc1ccc(Nc2nc3c(s2)C(=O)c2ccccc2C3=O)cc1 | 44.3 µM | 33.2 µM | 20.7 µM | 33.5 µM | 27.4 µM | 49.9 µM | 27.6 µM | 16.7 µM | 35.7 µM | 4.07 µM | 27 µM | 36.3 µM | – | – | 31.2 µM | – | 26.7 µM | 50.4 µM | 24 µM | 27.6 µM
O=C1Cc2c([nH]c3c(Cl)cccc23)-c2ccccc2N1 | > 100 µM | > 100 µM | > 100 µM | – | – | > 100 µM | – | > 100 µM | > 100 µM | > 100 µM | > 100 µM | > 100 µM | > 100 µM | > 100 µM | > 100 µM | – | > 100 µM | – | > 100 µM | > 100 µM
Cc1ncc([N+](=O)[O-])n1CCN(C)C(=O)CCCn1ccnc1[N+](=O)[O-] | > 100 µM | > 100 µM | > 100 µM | – | > 100 µM | > 100 µM | > 100 µM | > 100 µM | > 100 µM | > 100 µM | > 100 µM | > 100 µM | > 100 µM | > 100 µM | > 100 µM | > 100 µM | > 100 µM | > 100 µM | > 100 µM | –
